Key:
[1] = system: CCD8-Lu cells and LL-29 cells; assay: Cytotoxicity of pheophorbide a (WST-1 cell survival); format: cell-based, human; details: 72 hours, CCD8-Lu and LL-29
Experimental: In order to confirm the cytotoxicity of pheophorbide a obtained in Preparation Example 2, CCD8-Lu cells and LL-29 cells which are human lung-derived fibroblasts, were used. CCD8-Lu cells and LL-29 cells were inoculated into 96 well plates with […] cells/well and stabilized while culturing for 24 hours in a wet CO2 incubator at 37° C. The cultured cells were treated with different concentrations of pheophorbide a obtained in Preparation Example 2 and, 72 hours later, treated with the WST-1 reagent. After 1 hour, the survival rate of the cells was measured using a microplate reader (EZ Read 400, biochrom, UK) to determine the absorbance at 450 nm, and the toxicity was evaluated.
The cell survival rate as a result of the experiment is shown in FIG. 3 by expressing the percentage of the absorbance of the sample-treated group relative to the control group.

[2] = system: Smad protein activity in Balb/c3T3 cells; assay: Smad-binding luciferase reporter assay of TGF-β signaling; format: cell-based; details: 0.06-5 μM together with 5 ng/ml TGF-β, 20 hours
Experimental: A vector was prepared in which a gene obtained by repeating eight times the nucleotide sequence (5′-[…]-3′ SEQ ID NO: 1) to which the Smad gene can bind was linked to a gene encoding luciferase as a reporter gene. The above vector was transfected into Balb/c3T3 cells together with a vector in which the RSV promoter gene was linked to a gene encoding beta-galactosidase. After 6 hours, the negative control group was treated with nothing, the positive control group was treated with TGF-β at a concentration of 5 ng/ml, and the experimental groups were treated with pheophorbide a obtained in Preparation Example 2 at each concentration of 0.06 μM, 0.12 μM, 0.25 μM, 0.5 μM, 1 μM, and 5 μM, together with 5 ng/ml of TGF-β.
The cells were then cultured in 5% CO2 incubator at 37° C. for 20 hours, and then luciferase analysis was performed.

[3] = system: α-SMA, CTGF and NOX4 genes in CCD8-Lu cells; assay: Comparison of anti-fibrotic activity by quantitative real-time PCR (Experimental Example 4.1); format: cell-based, human; details: 2.5 μM and 5 μM; 6 hours after 5 ng/ml TGF-β, 18 hours; qRT-PCR
Experimental: A cell-based analysis experiment was performed to analyze the anti-fibrotic activity of pheophorbide a obtained in Preparation Example 2 in comparison with nintedanib and pirfenidone, which were previously approved as a therapeutic agent for pulmonary fibrosis, using quantitative real-time polymerase chain reaction.
CCD8-Lu cells, which are human lung-derived fibroblasts, were cultured in the DMEM medium containing 10% FBS. About 2×10^5 cells were then inoculated into a 6 well plate, cultured for 24 hours, and subjected to the deficient condition in the DMEM medium from which FBS was removed for about 24 hours.
24 hours later, following the treatment with TGF-β at a concentration of 5 ng/ml, fibrosis of cells was induced for 6 hours. After 6 hours, the cells were treated with pheophorbide a obtained in Preparation Example 2 or the therapeutic agent for pulmonary fibrosis and further cultured for 18 hours. […]
The supernatant was separated, added with the same volume of isopropyl alcohol and centrifuged at 12,000×g for 10 minutes. […] After drying, about 50 μl of RNAase-free purified distilled water was added thereto, and the quantity and purity of the obtained RNA was measured using a spectrophotometer. […]
After the cDNA synthesis reaction was completed, the reverse transcriptase was inactivated by heating at 72° C. for 5 minutes, and then RNase H was added to remove the […] RNA and obtain the final cDNA. Whether the expression of the alpha-smooth muscle actin gene, which is a characteristic gene of myofibroblasts, the CCN2 (or CTGF) gene, which is a characteristic gene for fibrosis, fibronectin, which is a characteristics gene for fibrosis, and the NOX4 (NADPH oxidase 4) gene known as a major regulator of the amount of reactive oxygen species was changed was observed through quantitative real-time polymerase chain reaction. The GAPDH gene was quantified together to correct differences in expression.

[4] = system: collagen 1A in CCD8-Lu cells; assay: Comparison of anti-fibrotic activity by immunocytochemistry staining (Experimental Example 4.3); format: cell-based, human; details: 2.5 μM and 5 μM; 6 hours after 5 ng/ml TGF-β; fluorescence intensity
Experimental: A cell-based analysis experiment was performed to analyze the anti-fibrotic activity of pheophorbide a in comparison with nintedanib and pirfenidone, which were previously approved as a therapeutic agent for pulmonary fibrosis, using immunocytochemistry staining method. CCD8-Lu cells, which are human lung-derived fibroblasts, were cultured in the DMEM medium containing 10% FBS. About 2×10^4 cells were then inoculated into a 24 well plate and cultured for 24 hours, and subjected to the deficient condition in the DMEM medium from which FBS was removed for about 24 hours. After 24 hours, following the treatment with TGF-β at a concentration of 5 ng/ml, fibrosis of cells was induced for 6 hours. After 6 hours, the cells were treated with 2.5 μM or 5 μM of pheophorbide a, 1 μM of nintedanib, or 1 mM of pirfenidone. Immunohistochemistry analysis for each sample was performed as follows. First, the sample was washed twice with a PBS buffer, and then 4% formaldehyde was added to fix for 1 hour, and anti-collagen 1A was used as a primary antibody and Alexa Fluor 488 was used as a secondary antibody. The nuclei were stained using DAPI (4,6-diamidino-2-phenylindole) and the difference in the intensity of fluorescence was analyzed using a fluorescence microscope.

pheophorbide a
cytotoxicity ([1]; concentration of 5 μM): about 25% | cytotoxicity ([1]; concentration of 10 μM): about 75% | cytotoxicity ([1]; up to a concentration of 2.5 μM): little cytotoxicity | activity of Smad protein increased by TGF-β (luciferase) [2]: decreased by pheophorbide a in a concentration-dependent manner | expression of the α-SMA, CTGF and NOX4 genes induced by TGF-β [3]: remarkably inhibited | increased expression of collagen 1A induced by TGF-β [4]: remarkably inhibited

— patent publication US20230015532A1, “PHARMACEUTICAL COMPOSITION, FOR PREVENTING OR TREATING FIBROSIS, COMPRISING PHEOPHORBIDE COMPOUND AS ACTIVE INGREDIENT” (PAEAN BIOTECHNOLOGY INC., priority 2019, published 2023)
